From US4551472A, “Unsymmetrical bis-carbamate compounds” (priority 1984, dated 1985)

Key:
Corn = assay: Phytotoxicity Test, corn; conditions: 2500 ppm spray, ten days
Procedure: (§1) Experiments were also conducted to determine the phytotoxicity of representative compounds with respect to healthy fresh plants. […] The test plants were sprayed in accordance with the procedure described above for the Mite Foliage Spray Test so as to deliver approximately 100 milliliters of test solution to the leaves of each plant tested. The sprayed plants and controls were set aside for approximately one hour to allow the foliage to dry and were then placed in the greenhouse. After ten days the plants were visually inspected to determine the extent of foliage injury. A rating of 1 indicates no perceptible injury; 5 indicates the plant was dead and ratings of 2, 3 and 4 indicate intermediate degrees of injury based upon the number and extent to which leaves were injured.

[1] = tested on: root-knot nematode, Meloidogyne incognita var. acrita; assay: Nematocide Test; further: key: 1: severe galling, equal to untreated plants; 2: moderate galling; 3: light galling; 4: very light galling; 5: no galling, perfect control; assay type: in vivo; conditions: 3.33 m.g. per jar; cucumber, approximately 3 weeks
Procedure: The test organism used was the infective migratory larvae of the root-knot nematode, Meloidogyne incognita var. acrita, reared in the greenhouse on roots of cucumber plants. Infected plants were removed from the culture, and the roots are chopped very finely. A small amount of this inoculum was added to a pint jar containing approximately 180 cc. of soil. The jars were capped and incubated for one week at room temperature. During this period eggs of the nematode were hatched, and the larval forms migrated into the soil.
Ten ml. of the test formulation were added to each of the two jars for each dosage tested. Following the addition of chemical, the jars were capped, and the contents thoroughly mixed on a ball mill for 5 minutes.
The test compounds were formulated by a standard procedure of solution in acetone addition of an emulsifier, and dilution with water. Primary screening tests were conducted at 3.33 m.g. of the test compound per jar.
The jars were left capped at room temperature for a period of 48 hours, and the contents then transferred to 3 inch pots. Subsequently, the pots were seeded to cucumber as an indicator crop and placed in the greenhouse where they were cared for in the normal fashion for approximately 3 weeks.
The cucumber plants were then taken from the pots, the soil removed from the roots; and the amount of galling visually rated.
In the test for activity against nematodes (nem) activity was rated as follows: […]

Tom = assay: Phytotoxicity Test, tomato; conditions: 2500 ppm spray, ten days
Procedure: as §1

Soy = assay: Phytotoxicity Test, soy; conditions: 2500 ppm spray, ten days
Procedure: as §1

[2] = Mammalian Toxicity, peroral toxicity to rat; assay type: in vivo; conditions: in vivo, po, read-out: A.O. Rat LD50
Procedure: Certain compounds were also evaluated to determine their peroral toxicity to mammals by conventional methods. The representative animal selected for this experiment was the rat.

Cotton = assay: Phytotoxicity Test, cotton; conditions: 2500 ppm spray, ten days
Procedure: as §1

Bean = assay: Phytotoxicity Test, bean; conditions: 2500 ppm spray, ten days
Procedure: as §1

Structure (SMILES)	Phytotoxicity: Corn (Corn)	Biological Activity: Nem (nematode, galling rating) [1]	Phytotoxicity: Tom (Tom)	Phytotoxicity: Soy (Soy)	LD50 [2]	Phytotoxicity: Cotton (Cotton)	Phytotoxicity: Bean (Bean)
CSC(C)=NOC(=O)N(C)SN(C)C(=O)ON=C1CSCCS1 [Example II]	1	5	1	1	190 mg/kg	1	1
CSC(C)=NOC(=O)N(C)SN(C)C(=O)Oc1ccccc1OC(C)C [XXXVIII]	1	–	1	2	63.5 mg/kg	1	1
CSC(C)=NOC(=O)N(C)SN(C)C(=O)ON=CC(C)(C)SC [Example I, N-[2-Methylthio-2-methylpropionaldehyde O-(N-methylcarbamoyl)oxime]N-[1-methylthioacetaldehyde O-(N-methylcarbamoyl)oxime]sulfide]	1	5	1	1	2.1 mg/kg	2	2
CCC(C)c1cc([N+](=O)[O-])cc([N+](=O)[O-])c1OC(=O)N(C)SN(C)C(=O)ON=C(C)SC (stereo not shown) [XIX, N-[1-Methylthioacetaldehyde O-(N-methylcarbamoyl)oxime]N-[2,4-dinitro-6-sec-butylphenyl-(N-methylcarbamoyloxy)]sulfide]	2	1	2	2	–	2	1
CSC(C)=NOC(=O)N(C)SN(C)C(=O)ON=C(C)C(=O)c1ccccc1 [XLI]	1	1	1	1	–	1	1
CSC(C)=NOC(=O)N(C)SN(C)C(=O)Oc1ccc(SC)c(C)c1 [XV, N-[1-Methylthioacetaldehyde O-(N-methylcarbamoyl)oxime]N-[O-(N-methylcarbamoyl)-4-methylthio-3-methylphenyl]sulfide]	1	4	1	1	40 mg/kg	1	1
CCCCCCCCCc1ccc(OC(=O)N(C)SN(C)C(=O)ON=C(C)SC)cc1 [XXXI]	1	5	1	1	> 640 mg/kg	1	1
CSC(C)=NOC(=O)N(C)SN(C)C(=O)Oc1cc(C)c(C)c(C)c1 [XVIII, N-[1-Methylthioacetaldehyde O-(N-methylcarbamoyl)oxime]N-[3,4,5-trimethylphenyl-(N-methylcarbamoyloxy)]sulfide]	1	4	1	1	95.1 mg/kg	1	1
CSC(C)=NOC(=O)N(C)SN(C)C(=O)Oc1cccc2c1CCCC2 [XIV, N-[1-Methylthioacetaldehyde O-(N-methylcarbamoyl)oxime]N-[1-(N-methylcarbamoyloxy)-5,6,7,8-tetrahydronaphthalene]sulfide]	1	4	1	1	285 mg/kg	1	1
CSC(C)=NOC(=O)N(C)SN(C)C(=O)ON=C1SCSCS1 [XL]	1	5	1	1	–	1	1
CSC(C)=NOC(=O)N(C)SN(C)C(=O)Oc1ccc(-c2ccccc2)cc1 [XXXII]	1	4	1	1	–	2	2
CSC(C)=NOC(=O)N(C)SN(C)C(=O)ON=C(SC)C(=O)N(C)C [XI, N-[1-Methylthioacetaldehyde O-(N-methylcarbamoyl)oxime]N-[1-methylthio-N', N'-dimethylcarbamoylformaldehyde O-(N-methylcarbamoyl)oxime]sulfide]	1	–	1	1	14.1 mg/kg	2	1
C#CCOC(=O)N(C)SN(C)C(=O)Oc1cccc2ccccc12 [XXVI]	1	4	1	2	–	1	1
CSC(C)=NOC(=O)N(C)SN(C)C(=O)Oc1cccc(N(C)C)c1 [XX, N-[1-Methylthioacetaldehyde O-(N-methylcarbamoyl)oxime]N-[3-(N',N'-dimethylamino)phenyl-(N-methylcarbamoyloxy)]sulfide]	1	4	1	2	–	2	1
CSC(C)=NOC(=O)N(C)SN(C)C(=O)Oc1ccc(C(C)(C)C)cc1Cl [XXIX]	1	5	1	1	–	1	1
C#CCOC(=O)N(C)SN(C)C(=O)Oc1ccc(C)c(C)c1 [XXVII]	1	5	1	2	–	2	1
CSC(C)=NOC(=O)N(C)SN(C)C(=O)Oc1cccc(C(C)C)c1 [XXVIII]	1	–	1	2	40 mg/kg	2	1
CSC(C)=NOC(=O)N(C)SN(C)C(=O)Oc1ccc(NC=O)c(C)c1 [XXI, N-[1-Methylthioacetaldehyde O-(N-methylcarbamoyl)oxime]N-[4-formylamino-3-methylphenyl-(N-methylcarbamoyloxy)]sulfide]	1	4	1	1	–	1	1
CSC(C)=NOC(=O)N(C)SN(C)C(=O)Oc1cccc(Oc2ccccc2)c1 [XXXV]	1	–	1	1	–	1	1
C=CCc1ccc(OC(=O)N(C)SN(C)C(=O)ON=C(C)SC)c(OC)c1 [XXXIII]	1	5	1	1	–	3	1
CC(C)c1ccc(OC(=O)N(C)SN(C)C(=O)ON=C2CSCCS2)cc1 [XXV, N-[2-O-(N-methylcarbamoyl)oximino-1,4-dithiane]N-[4-isopropyl-(N-methylcarbamoyloxy)benzene]sulfide]	1	–	1	1	–	3	1
CSC(C)=NOC(=O)N(C)SN(C)C(=O)Oc1ccccc1C1OCCO1 [XXXVII]	1	4	1	2	–	2	2
CSC(C)=NOC(=O)N(C)SN(C)C(=O)Oc1ccc(Oc2ccccc2)cc1 [XXXIV]	1	–	1	1	> 640 mg/kg	1	1
C#CCOC(=O)N(C)SN(C)C(=O)ON=C1SC(C)(C)C(=O)N1C [IV, N-[N-methyl-N-propargyloxycarbonylamino]N-[3,5,5-trimethylthiazolidin-4-one-2 O-(N-methylcarbamoyl)oxime]sulfide]	1	1	2	2	–	2	1
CCCCCCCCCCCCc1ccc(OC(=O)N(C)SN(C)C(=O)ON=C(C)SC)cc1 [XXX]	1	4	1	1	–	2	1
